The text below walks through data of patent publication US8173387B2, “Method of examining chemical using gene-disrupted strain” (priority 2003, dated 2012).

What all share (format): cell-based, Saccharomyces cerevisiae
Assay [1] relates to homozygous diploid of gene-disrupted strain DEL006 (YHR039C-A) transformed with a plasmid p-YBR072W. Kind of assay: promoter assay (GFP reporter), Example 3. The following applies: W303 background. From the text: (§1) In order to prepare a gene-disrupted strain transformation cassette, genes having chemical sensitivity; YPR036W(DEL000), YDL151C(DEL001), YGL026C(DEL003), YHR039C-A(DEL006), YKL080W(DEL007), YLR447C(DEL008), YGR006W(DEL012), YGR105W(DRL013), YJR104C(DEL014), YGL206C(DEL018), YIL036W(DEL019), YKL119C(DEL020), YLR226W(DEL022) and YLR311C(DEL025) in Table 7 were selected, and each gene was replaced with a transformation marker such as kanamycin resistance. As primers for performing PCT amplification, a N-terminal side (ORF(upper)) and a C-terminal side (ORF(lower)) in each ORF were used. A length of a sequence (ORF(upper) and ORF(lower)) of a primer homologues with ORF was 46 or 50 bp.
(§2) A W303 a mating type (ATCC200903) and a W303α mating type (ATCC201238) in which the same gene was gene disruption-manipulated were mated by a mating procedure (Yeast Gene Experimental Manual: Maruzen Co., Ltd., p 83-92) to prepare homozygous diploids. Separately, mating of a W303a mating type, and a non-gene-disrupted W303α type was performed by the similar procedure to prepare heterozygous diploids.
(§3) By such the procedure, homozygous diploids of DEL000, DEL001, DEL003, DEL006, DEL007, DEL008, DEL012, DEL013, DEL014, DEL018, DEL019, DEL020, DEL022 and DEL025 in Table 7 were prepared. In addition, heterozygous diploids in which DEL006, DEL014 and DEL 022 were mated with a non-gene-disrupted strain (hereafter, referred to as DEL006 heterozygous diploid, DEL 014 heterozygous diploid, DEL022 heterozygous diploid) and, further, a heterozygous diploid in which DEL000 and DEL014 were mated (hereafter, referred to as DEL000/014 heterozygous diploid) were prepared.
(§4) Competent cells of W303 ATCC201239 (MATa/MATα leu2-3/leu2-3 leu2-112/leu2-112 trp1-1/trp1-1 ura3-1/ura3-1 his 3-11/his3-11 his3-15/his3-15 ade2-1/ade2-1 can1-100/can1-100) which is a parent strain of gene-disrupted strains, and each of prepared gene-disrupted strains were prepared. The competent cells were transformed using two kind of prepared plasmid for promoter assay, p-YBR072W (in which GFP is connected downstream of a promoter of YBR072W) and p-YPL171C (in which GFP is connected downstream of a promoter of YPL171C).
(§5) The resulting transformant was grown to the steady state by shaking-culturing on a SD medium (adenine, hystidine, triptophan, leucine) at 25° C. The transformant in the steady state was diluted 500-fold with the same medium, shaking-cultured at 25° C. for 15 hours and, after it was confirmed that an absorbance at 600 nm was 0.2 to 0.5 as a logarithmic growth phase, chemicals having different concentrations were loaded. After loading of chemicals, fluorescence of cells which had been cultured for 4 hours was measured using a flow cytometer (FITC filter, EPICS XL-MCL, Bechmancoulter), and this was adopted as an expression amount of GFP (green fluorescence protein) which is a marker gene. A fluorescence intensity of 10000 cells was measured with a flow cytometer by one measurement and an average of fluorescence intensities of all cells was obtained, and was adopted as a measured value. Similarly, a fluorescence intensity of a cell to which a chemical had not been loaded was obtained, and results are shown as difference in a fluorescence intensity.

Assay [2] relates to homozygous diploid of gene-disrupted strain DEL013 (YGR105W) transformed with a plasmid p-YBR072W. Kind of assay: promoter assay (GFP reporter), Example 3. The settings on record: W303 background.
Text: as §1, §2, §3, §4, §5

For assay [3], the system named is homozygous diploid of gene-disrupted strain DEL012 (YGR006W) transformed with a plasmid p-YBR072W. As to the kind of experiment: promoter assay (GFP reporter), Example 3. The following applies: W303 background.
Text: as §1, §2, §3, §4, §5

The test system of assay [4] is homozygous diploid of gene-disrupted strain DEL007 (YKL080W) transformed with a plasmid p-YBR072W. As to the kind of experiment: promoter assay (GFP reporter), Example 3. The settings on record: EL007 homozygous diploid, W303 background.
Text: as §1, §2, §3, §4, §5

Assay [5] deals with homozygous diploid of gene-disrupted strain DEL020 (YKL119C) transformed with a plasmid p-YBR072W. As to the kind of experiment: promoter assay (GFP reporter), Example 3. The settings on record: W303 background.
Text: as §1, §2, §3, §4, §5

Assay [6] concerns homozygous diploid of gene-disrupted strain DEL022 (YLR226W) transformed with a plasmid p-YBR072W. Kind of assay: promoter assay (GFP reporter), Example 3. The following applies: DEL022 (DEL0022) homozygous diploid, W303 background.
Text: as §1, §2, §3, §4, §5

The test system of assay [7] is heterozygous diploid of gene-disrupted strain DEL022 (YLR226W) transformed with a plasmid p-YBR072W. As to the kind of experiment: promoter assay (GFP reporter), Example 3. The following applies: DEL0022 heterozygous diploid, W303 background.
Text: as §1, §2, §3, §4, §5

The test system of assay [8] is gene-disrupted strain DEL000 (YPR036W) transformed with a plasmid p-YBR072W. As to the kind of experiment: promoter assay (GFP reporter), Example 2. The settings on record: GFP fluorescence 4 hours after loading, parent strain BY4743. The protocol:
(§6) In a gene-disrupted strain, a growing rate becomes small so much, or medium components in which the strain can be grown are different in some cases, depending on a disrupted gene. Then, in the present experiment studying a host cell of a promoter assay method, in view of easy comparison with a control experiment, among gene-disrupted strains obtained as the result of Example 1, a few strains which have sensitivity to many chemicals and are grown by the same procedure as that of a parent strain were selected. Selected gene-disrupted strains are 8 strains of DEL000, DEL002, DEL011, DEL014, DEL016, DEL019, DEL022 and DEL025 in Table 7. Further, as a control, a parent strain, BY4743 was used.
(§7) A competent cell of each of a parent strain of a gene-disrupted strain and selected gene-disrupted strains was prepared. This competent cell was transformed using two kinds of prepared plasmids for promoter assay, p-YBR072W (in which GFP was connected understream of a promoter of YBR072W) and p-YPL171C (in which GFP was connected downstream of a promoter of YPL171C).
as §5, with “(histidine,” for “(adenine, hystidine, triptophan,”, “as” for “as difference in”, “intensity ratio.” for “intensity.”

Assay [9] has as its system gene-disrupted strain DEL019 (YIL036W) transformed with a plasmid p-YBR072W. Kind of assay: promoter assay (GFP reporter), Example 2. The following applies: DEL 019, p-YBR072W, GFP fluorescence 4 hours after loading, parent strain BY4743. The protocol:
as §6, §7
as §5, with “(histidine,” for “(adenine, hystidine, triptophan,”, “as” for “as difference in”, “intensity ratio.” for “intensity.”

The subject of assay [10] is gene-disrupted strain DEL025 (YLR311C) transformed with a plasmid p-YBR072W. Kind of assay: promoter assay (GFP reporter), Example 2. The settings on record: DEL025, p-YBR072W, GFP fluorescence 4 hours after loading, parent strain BY4743. The protocol: as §6, §7
as §5, with “(histidine,” for “(adenine, hystidine, triptophan,”, “as” for “as difference in”, “intensity ratio.” for “intensity.”

The test system of assay [11] is gene-disrupted strain DEL022 (YLR226W) transformed with a plasmid p-YBR072W. Kind of assay: promoter assay (GFP reporter), Example 2. The following applies: GFP fluorescence 4 hours after loading, parent strain BY4743. The protocol: as §6, §7
as §5, with “(histidine,” for “(adenine, hystidine, triptophan,”, “as” for “as difference in”, “intensity ratio.” for “intensity.”

As to `CCN(CC)C(=O)SCc1ccc(Cl)cc1` [benthiocarb], the “concentration at which sensitivity is shown, as fraction of a concentration of a gene-non-disrupted strain” value in assay [1] was 1/10; in assay [2], 1/3; in assay [3], 1/3; in assay [4], 1/10; in assay [5] it was 1/3; in [6] it was 1/10. For the same compound, the “concentration at which sensitivity is shown, as fraction of a concentration of a gene-non-disrupted strain” value in assay [7] was 1/3. In addition, the “concentration at which the strain responded, as fraction of a concentration of a parent strain” value is given as 1/3 in assay [8], 1/100 in assay [9], 1/3 in assay [10] and 1/10 in assay [11].
